Our source for the A405 values is patent US6337192B1, “MMSC1-an MMAC1 interacting protein” (Myraid Genetics, Inc., priority 1998, dated 2002).

In one experiment the target is T1, MMSc1 PDZ 3 (Homo sapiens, UniProt Q8NI35).
T1 construct: made in house; host or cells: E. coli
T1 sequence (Q8NI35 365-453 limits assumed): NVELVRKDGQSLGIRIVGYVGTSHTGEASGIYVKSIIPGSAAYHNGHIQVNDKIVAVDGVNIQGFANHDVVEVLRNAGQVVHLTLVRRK
The experiment can be described thus: Peptide binding ELISA assay (PDZ Binding Assay), MMSC1 PDZ domain 3. As to conditions: immobilized GST fusion of MMSc1 PDZ 3; biotinylated peptide pre-bound to streptavidin-alkaline phosphatase; colorimetric phosphatase assay. The source says:
(§1) cDNAs encoding each of the MMSC1 PDZ domains (amino acid residues identified in Table 1), and any desired control proteins, were generated by PCR and subcloned as glutathione S-transferase (GST) fusions in pGEX vectors (Pharmacia). After sequencing to confirm expression construct integrity, the resulting clones were expressed in E. coli and the desired fusion proteins isolated with glutathione-agarose and recovered with glutathione elution. These fusion proteins or control proteins were then adsorbed to different wells of a 96-well ELISA plate and remaining sites blocked with BSA. Synthetic commercially synthesized peptides encoding the desired PDZ-binding domain (i.e., the 16 C-terminal amino acids of MMAC1, or the C-terminal peptide sequences of interacting proteins identified by the approach of Example 2, or the C-terminal peptide sequences identified by the approach of Example 3), or a control peptide, and biotinylated at the amino-terminus, were pre-bound to streptavidin-alkaline phosphatase in a 4:1 molar ratio. The biotinylated peptide streptavidin-alkaline phosphatase complexes were then blocked with free biotin. These pre-bound peptide streptavidin-alkaline phosphatase complexes were then incubated with the immobilized PDZ domains in wash buffer containing PBS, BSA and triton-X100. Unbound material was removed with repeated washes. Bound peptide/streptavidin-alkaline phosphatase complex was then quantitated by a colorimetric phosphatase assay read on a 96-well plate reader.
(§2) The following peptides were used in the initial study: […]

Another experiment deals with T2, MMSc1 PDZ 5 (Homo sapiens, UniProt Q8NI35).
T2 construct: made in house; host or cells: E. coli
T2 sequence (Q8NI35 686-772 limits assumed): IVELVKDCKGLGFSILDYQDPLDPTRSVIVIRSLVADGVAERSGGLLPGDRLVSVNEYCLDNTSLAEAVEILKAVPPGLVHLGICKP
The experiment can be described thus: Peptide binding ELISA assay (PDZ Binding Assay), MMSC1 PDZ domain 5. As to conditions: immobilized GST fusion of MMSc1 PDZ 5; biotinylated peptide pre-bound to streptavidin-alkaline phosphatase; colorimetric phosphatase assay.
Description: as §1, §2
(An ELISA detects its analyte on a solid surface through an enzyme-linked reagent.)

The next experiment addresses T3, MMSc1 PDZ 9 (Homo sapiens, UniProt Q8NI35).
T3 construct: made in house; host or cells: E. coli
T3 sequence (Q8NI35 1533-1615 limits assumed): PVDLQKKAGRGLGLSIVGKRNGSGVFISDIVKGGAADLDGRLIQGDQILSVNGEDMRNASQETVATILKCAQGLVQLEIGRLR
Kind of experiment: Peptide binding ELISA assay (PDZ Binding Assay), MMSC1 PDZ domain 9. The note with it: immobilized GST fusion of MMSc1 PDZ 9; biotinylated peptide pre-bound to streptavidin-alkaline phosphatase; colorimetric phosphatase assay.
Description: as §1, §2

Another experiment addresses T4, MMSc1 PDZ 6 (Homo sapiens, UniProt Q8NI35).
T4 construct: made in house; host or cells: E. coli
T4 sequence (Q8NI35 1068-1160 limits assumed): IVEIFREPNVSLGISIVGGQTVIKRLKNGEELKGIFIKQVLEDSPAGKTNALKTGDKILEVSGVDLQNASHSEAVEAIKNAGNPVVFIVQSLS
Kind of experiment: Peptide binding ELISA assay (PDZ Binding Assay), MMSC1 PDZ domain 6. As to conditions: immobilized GST fusion of MMSc1 PDZ 6; biotinylated peptide pre-bound to streptavidin-alkaline phosphatase; colorimetric phosphatase assay.
Description: as §1, §2

A further experiment has as its target T5, MMSc1 PDZ 7 (Homo sapiens, UniProt Q8NI35).
T5 construct: made in house; host or cells: E. coli
T5 sequence (Q8NI35 1239-1322 limits assumed): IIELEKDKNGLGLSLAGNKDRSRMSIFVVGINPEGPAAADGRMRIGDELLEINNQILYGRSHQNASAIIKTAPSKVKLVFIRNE
The experiment can be described thus: Peptide binding ELISA assay (PDZ Binding Assay), MMSC1 PDZ domain 7. The note with it: immobilized GST fusion of MMSc1 PDZ 7; biotinylated peptide pre-bound to streptavidin-alkaline phosphatase; colorimetric phosphatase assay.
Description: as §1, §2

The target in a further experiment is T6, MMSc1 PDZ 8 (Homo sapiens, UniProt Q8NI35).
T6 construct: made in house; host or cells: E. coli
T6 sequence (Q8NI35 1437-1520 limits assumed): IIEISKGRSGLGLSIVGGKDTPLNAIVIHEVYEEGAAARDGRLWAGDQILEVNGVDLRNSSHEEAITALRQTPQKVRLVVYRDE
Kind of experiment: Peptide binding ELISA assay (PDZ Binding Assay), MMSC1 PDZ domain 8. The note with it: immobilized GST fusion of MMSc1 PDZ 8; biotinylated peptide pre-bound to streptavidin-alkaline phosphatase; colorimetric phosphatase assay.
Description: as §1, §2

* marks the point of attachment. Biotin = O=C1N[C@H]2[C@H](CS[C@H]2CCCCC(=O)*)N1

Biotin-ENEPFDEDQHTQITKV-OH [MMAC]: the A405 on MMSc1 PDZ 3 is recorded as 0.01; at MMSc1 PDZ 5, 0.00; at MMSc1 PDZ 9 it was 0.10; at MMSc1 PDZ 6 it was 0.23; on MMSc1 PDZ 7 it was 1.25; at MMSc1 PDZ 8 it was 0.30.
On to Biotin-SGDDGDDPFLQYEFYV-OH [AF6], for which the A405 is listed as 2.24 on MMSc1 PDZ 3; 0.02 at MMSc1 PDZ 5; 2.41 at MMSc1 PDZ 9; 1.46 at MMSc1 PDZ 6; 1.05 on MMSc1 PDZ 7; 0.29 on MMSc1 PDZ 8.
Turning to Biotin-SGSGILAPPVPPRNTR-OH [SH3], the A405 on MMSc1 PDZ 3 turned out to be 0.01; at MMSc1 PDZ 5, 0.00; on MMSc1 PDZ 9 it was 0.02; at MMSc1 PDZ 6 it was 0.00; on MMSc1 PDZ 7 it was 0.01; at MMSc1 PDZ 8, 0.00.
